Assay results reported in US20250122174A1 (Shenzhen Yuanli Shenwan Innovative Medicine Co., Ltd., priority 2022, published 2025).

biological target: HPK1 (Homo sapiens (Human), UniProt Q92918); experiment: HPK1 Inhibition Assay (ADP-Glo kinase assay); assay type: biochemical; conditions: ATP 10 μM
Summary of the method: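 ADP-Glo luminescence read-out after 1 h room-temperature kinase reaction with 10 μM ATP and 0.1 μg/ml MBP. Recombinant human HPK1 at 7.5 ng/μl; buffer 40 mM Tris pH 7.5, 20 mM MgCl2. Compounds serially diluted 5-fold over 10 points from 10 mM DMSO stock.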

Chain of HPK1 (Q92918 1-346 limits assumed): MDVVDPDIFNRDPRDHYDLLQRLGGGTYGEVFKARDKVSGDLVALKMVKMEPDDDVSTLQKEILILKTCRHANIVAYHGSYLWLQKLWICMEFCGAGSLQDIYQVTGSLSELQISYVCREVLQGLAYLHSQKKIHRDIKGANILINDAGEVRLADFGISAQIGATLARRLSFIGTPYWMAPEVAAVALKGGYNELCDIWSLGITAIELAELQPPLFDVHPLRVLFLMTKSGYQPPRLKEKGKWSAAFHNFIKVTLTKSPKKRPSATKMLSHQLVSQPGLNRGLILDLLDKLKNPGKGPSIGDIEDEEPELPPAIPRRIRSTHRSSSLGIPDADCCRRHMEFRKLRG

Row | IC50 [nM] | Structure (SMILES)
1 | < 100 | CC(C)n1cc2c(N3C[C@H](C)[C@@H](N)C3)c(NC(=O)c3ccc(=O)n(-c4c(F)cccc4F)n3)ccc2n1 [Example 231, N-(4-((3R,4S)-3-amino-4-methylpyrrolidin-1-yl)-2-isopropyl-2H-indazol-5-yl)-1-(2,6-difluorophenyl)-6-oxo-1,6-dihydropyridazine-3-carboxamide]
2 | < 100 | CCn1cc2c(N3CC[C@@H](N)C3)c(NC(=O)c3ccc(=O)n(-c4c(F)cccc4F)n3)ccc2n1 [Example 329, (R)-N-(4-(3-aminopyrrolidin-1-yl)-2-ethyl-2H-indazol-5-yl)-1-(2,6-difluorophenyl)-6-oxo-1,6-dihydropyridazine-3-carboxamide]
3 | < 100 | C[C@@H]1CN(c2c(NC(=O)c3ccc(=O)n(-c4c(F)cccc4F)n3)ccc3nn(C45CC(C)(C4)C5)cc23)C[C@@H]1N [Example 318, N-(4-((3R,4R)-3-amino-4-methylpyrrolidin-1-yl)-2-(3-methylbicyclo[1.1.1]pentan-1-yl)-2H-indazol-5-yl)-1-(2,6-difluorophenyl)-6-oxo-1,6-dihydropyridazine-3-carboxamide]
4 | < 100 | CC(C)(C)n1cc2c(N3CC[C@@H](N)C3)c(NC(=O)c3ccc(=O)n(-c4c(F)cccc4F)n3)ccc2n1 [Example 241, (R)-N-(4-(3-aminopyrrolidin-1-yl)-2-(tert-butyl)-2H-indazol-5-yl)-1-(2,6-difluorophenyl)-6-oxo-1,6-dihydropyridazine-3-carboxamide]
5 | < 100 | C[C@@H]1CN(c2c(NC(=O)c3ccc(=O)n(-c4c(F)cccc4F)n3)ccc3nn(C(C)(C)C)cc23)C[C@@H]1N [Example 234, N-[4-[(3R,4R)-3-amino-4-methyl-pyrrolidin-1-yl]-2-tert-butyl-indazol-5-yl]-1-(2,6-difluorophenyl)-6-oxo-pyridazine-3-carboxamide]
6 | < 100 | CSCc1nc2c(N3CC[C@@H](N)C3)c(NC(=O)c3ccc(=O)n(-c4c(F)cccc4F)n3)ccc2n1C [Example 162, (R)-N-(4-(3-aminopyrrolidin-1-yl)-1-methyl-2-((methylthio)methyl)-1H-benzo[d]imidazol-5-yl)-1-(2,6-difluorophenyl)-6-oxo-1,6-dihydropyridazine-3-carboxamide]
7 | < 100 | CC(C)n1nc2c(F)cc(NC(=O)c3ccc(=O)n(-c4c(F)cccc4F)n3)c(N3CC[C@@H](N)C3)c2c1Cl [Example 223, (R)-N-(4-(3-aminopyrrolidin-1-yl)-3-chloro-7-fluoro-2-isopropyl-2H-indazol-5-yl)-1-(2,6-difluorophenyl)-6-oxo-1,6-dihydropyridazine-3-carboxamide]
8 | < 100 | Cn1c(C(C)(C)C(F)(F)F)nc2c(N3CC[C@@H](N)C3)c(NC(=O)c3ccc(=O)n(-c4c(F)cccc4F)n3)ccc21 [Example 158, (R)-N-(4-(3-aminopyrrolidin-1-yl)-1-methyl-2-(1,1,1-trifluoro-2-methylpropan-2-yl)-1H-benzo[d]imidazol-5-yl)-1-(2,6-difluorophenyl)-6-oxo-1,6-dihydropyridazine-3-carboxamide]
9 | < 100 | Cn1c(C(C)(C)F)nc2c(N3CC[C@@H](N)C3)c(NC(=O)c3ccc(=O)n(-c4c(F)cccc4F)n3)ccc21 [Example 155]
10 | < 100 | C[C@@H]1CN(c2c(NC(=O)c3ccc(=O)n(-c4c(F)cccc4F)n3)ccc3nn(C4CC(F)(F)C4)cc23)C[C@@H]1N [Example 307, N-(4-((3R,4R)-3-amino-4-methylpyrrolidin-1-yl)-2-(3,3-difluorocyclobutyl)-2H-indazol-5-yl)-1-(2,6-difluorophenyl)-6-oxo-1,6-dihydropyridazine-3-carboxamide]
11 | < 100 | CC1(C)CN(c2c(NC(=O)c3ccc(=O)n(-c4c(F)cccc4F)n3)ccc3nn([C@H]4CCOC4)cc23)C[C@H]1N [Example 325, N-(4-((S)-4-amino-3,3-dimethylpyrrolidin-1-yl)-2-((S)-tetrahydrofuran-3-yl)-2H-indazol-5-yl)-1-(2,6-difluorophenyl)-6-oxo-1,6-dihydropyridazine-3-carboxamide]
